Measurements from BindingDB's records for doi:10.1021/acsmedchemlett.8b00149 (Merck, 2018).

Molecular target: Free fatty acid receptor 1 (Homo sapiens, UniProt O14842)
Experiment: Agonist activity at recombinant human GPR40 expressed in HEK293 cells assessed as increase in IP1 accumulation measured after 60 mins by HTRF assay

Sequence of Free fatty acid receptor 1 (O14842 whole entry): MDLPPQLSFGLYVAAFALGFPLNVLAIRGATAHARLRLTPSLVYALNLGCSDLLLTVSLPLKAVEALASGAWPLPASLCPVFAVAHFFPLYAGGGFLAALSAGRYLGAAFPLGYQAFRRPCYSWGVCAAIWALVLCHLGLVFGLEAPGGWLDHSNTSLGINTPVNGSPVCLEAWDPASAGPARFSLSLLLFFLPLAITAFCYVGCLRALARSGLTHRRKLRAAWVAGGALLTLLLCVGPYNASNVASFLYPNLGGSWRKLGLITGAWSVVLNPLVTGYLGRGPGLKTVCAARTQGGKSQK

Work on `COc1cc(-c2cnc(C3CCc4ccc([C@H](C5CC5)[C@H](C)C(=O)O)cc4O3)c(F)c2)c(F)cn1` (stereo partly specified) yielded an EC50 of 1.6 nM.
